According to article PMC8286840, “Identifying SARS-CoV-2 antiviral compounds by screening for small molecule inhibitors of Nsp3 papain-like protease” (Biochemical Journal, 2021):
Counter-ions that a name gives are not always drawn. Like-named read-outs stand apart in the source and are kept apart here. Where a SMILES comes first, the peptide text is derived from it. [ ]: non-standard residue; d: D form. Nle = CCCC[C@H](N)C(=O)O

Key:
[1] = target: T1, SARS-CoV-2 PLpro (nsp3 1564–1878) (Severe acute respiratory syndrome coronavirus 2, UniProt P0DTD1); test: biochemical; set-up: FRET-quenched peptide (Pro3) cleavage by PLpro, 10 min pre-incubation, slope over 20 min, normalised to no-compound control; conditions: low concentration screen, read-out: % of control remaining
[2] = target: T1, SARS-CoV-2 PLpro (nsp3 1564–1878); test: biochemical; set-up: FRET-quenched peptide (Pro3) cleavage by PLpro, 10 min pre-incubation, slope over 20 min, normalised to no-compound control; conditions: high concentration screen, read-out: % of control remaining

SMILES: CC[C@@H](C(=O)[C@@H](C)[C@@H](O)[C@H](C)[C@@H]1O[C@@H]([C@@H](CC)C(=O)O)CC[C@@H]1C)[C@H]1O[C@]2(C=C[C@@H](O)[C@]3(CC[C@@](C)([C@H]4CC[C@](O)(CC)[C@H](C)O4)O3)O2)[C@H](C)C[C@@H]1C [Salinomycin]
- remaining activity at 1.25 µM ([1]; Well no.=3499): 104%
- remaining activity at 3.75 µM ([2]; Well no.=3499): 102%

SMILES: CN(C)c1ccc(/C=C2\C(=O)Nc3ccccc32)cc1 [SU 4312 - 3-[[4-(dimethylamino)phenyl]methylene]-1,3-dihydro-2H-indol-2-one]
- remaining activity at 1.25 µM ([1]; Well no.=2430): 106%
- remaining activity at 3.75 µM ([2]; Well no.=2430): 109%

SMILES: C[C@H]([C@H](O)CCC(C)(C)O)[C@H]1CC[C@@]2(O)C3=CC(=O)[C@@H]4C[C@@H](O)[C@@H](O)C[C@]4(C)[C@H]3CC[C@]12C [Ecdysone]
- remaining activity at 1.25 µM ([1]; Well no.=3643): 104%
- remaining activity at 3.75 µM ([2]; Well no.=3643): 102%

SMILES: NC(N)=NCCNS(=O)(=O)c1cccc2cnccc12 [HA 1004, Dihydrochloride]
- remaining activity at 1.25 µM ([1]; Well no.=2433): 111%
- remaining activity at 3.75 µM ([2]; Well no.=2433): 108%

SMILES: CON(C)C(=O)[C@H](O)[C@H](Cc1ccccc1)NC(=O)c1cc2cc(Cl)ccc2[nH]1 [N-{(1S,2R)-1-benzyl-2-hydroxy-3-[methoxy(methyl)amino]-3-oxopropyl}-5-chloro-1H-indole-2-carboxamide]
- remaining activity at 1.25 µM ([1]; Well no.=6057): 100%
- remaining activity at 3.75 µM ([2]; Well no.=6057): 97.9%

SMILES: O=[N+]([O-])c1cccc2cn[nH]c12 [7-Nitroindazole]
- remaining activity at 1.25 µM ([1]; Well no.=955): 107%
- remaining activity at 3.75 µM ([2]; Well no.=955): 100%

SMILES: CC(C)NP(=O)(NC(C)C)OP(=O)(NC(C)C)NC(C)C [Tetraisopropyl pyrophosphoramide]
- remaining activity at 1.25 µM ([1]; Well no.=1473): 103%
- remaining activity at 3.75 µM ([2]; Well no.=1473): 100%

SMILES: CN(c1ccccc1CNc1nc(Nc2ccc3c(c2)CC(=O)N3)ncc1C(F)(F)F)S(C)(=O)=O [PF431396]
- remaining activity at 1.25 µM ([1]; Well no.=3033): 99.3%
- remaining activity at 3.75 µM ([2]; Well no.=3033): 100%

SMILES: CC1=C[C@@H]2c3cccc4[nH]cc(c34)C[C@H]2N(C)C1 [Agroclavine]
- remaining activity at 1.25 µM ([1]; Well no.=210): 94.3%
- remaining activity at 3.75 µM ([2]; Well no.=210): 93.5%

SMILES: CCCCCCCC/C=C\CCCCCCCC(=O)OC[C@H](CO)OC(C)=O [1-Oleoyl-2-acetyl-glycerol]
- remaining activity at 1.25 µM ([1]; Well no.=4480): 97.7%
- remaining activity at 3.75 µM ([2]; Well no.=4480): 99.2%

SMILES: COc1ccccc1O [Guaiacol]
- remaining activity at 1.25 µM ([1]; Well no.=1626): 96.8%
- remaining activity at 3.75 µM ([2]; Well no.=1626): 98.8%

SMILES: CCCC[C@@H](C=O)NC(=O)[C@H](CC(C)C)NC(=O)[C@H](CC(C)C)NC(C)=O [(2S)-2-(acetylamino)-N-[(1S)-1-({[(1S)-1-formylpentyl]amino}carbonyl)-3-methylbutyl]-4-methylpentanamide] (Ac-Leu-Leu-[Nle]-aldehyde)
- remaining activity at 1.25 µM ([1]; Well no.=5774): 95.7%
- remaining activity at 3.75 µM ([2]; Well no.=5774): 95.3%

SMILES: CCN1CCCC1CNC(=O)c1cc(S(N)(=O)=O)ccc1OC (racemic)
- remaining activity at 1.25 µM ([1]; Well no.=1174): 105%
- remaining activity at 3.75 µM ([2]; Well no.=1174): 106%

SMILES: CCCCCCCCCCCCCCCCn1cc[n+](Cc2ccccc2)c1C [NH 125 - 1-Hexadecyl-2-methyl-3-(phenylmethyl)-1H-imidazolium iodide]
- remaining activity at 1.25 µM ([1]; Well no.=2336): 97.5%
- remaining activity at 3.75 µM ([2]; Well no.=2336): 97%

SMILES: O=C(O)CCCCCCC(=O)O [Octanedioic acid]
- remaining activity at 1.25 µM ([1]; Well no.=6931): 108%
- remaining activity at 3.75 µM ([2]; Well no.=6931): 103%

SMILES: CN([C@@H](Cc1ccc(OS(=O)(=O)c2cccc3cnccc23)cc1)C(=O)N1CCN(c2ccccc2)CC1)S(=O)(=O)c1cccc2cnccc12 [KN-62]
- remaining activity at 1.25 µM ([1]; Well no.=670): 97.4%
- remaining activity at 1.25 µM ([1]; Well no.=2308): 99.3%
- remaining activity at 3.75 µM ([2]; Well no.=670): 95.8%
- remaining activity at 3.75 µM ([2]; Well no.=2308): 99%

SMILES: NC(Cc1ccc(O)c(O)c1)C(=O)O (racemic) [DL-Dopa]
- remaining activity at 1.25 µM ([1]; Well no.=6391): 106%
- remaining activity at 3.75 µM ([2]; Well no.=6391): 107%

SMILES: OCCOc1ccc(/C(=C(/CCCl)c2ccccc2)c2ccccc2)cc1 [2-{4-[(1Z)-4-chloro-1,2-diphenyl-1-butenyl]phenoxy}ethanol]
- remaining activity at 1.25 µM ([1]; Well no.=5956): 92.3%
- remaining activity at 3.75 µM ([2]; Well no.=5956): 93.6%

SMILES: Cc1cc(=O)n(-c2ccccc2)n1C [Antipyrine]
- remaining activity at 1.25 µM ([1]; Well no.=5024): 96.5%
- remaining activity at 3.75 µM ([2]; Well no.=5024): 100%

SMILES: CCN(CC)CCCCN1c2ccccc2Oc2ccc(Cl)cc21 [Akt Inhibitor X]
- remaining activity at 1.25 µM ([1]; Well no.=2317): 101%
- remaining activity at 3.75 µM ([2]; Well no.=2317): 102%

SMILES: CCc1ccc(Cc2ccc3c(c2)[C@]2(OC3)O[C@H](CO)[C@@H](O)[C@H](O)[C@H]2O)cc1 [Tofogliflozin(CSG 452)]
- remaining activity at 1.25 µM ([1]; Well no.=8776): 101%
- remaining activity at 3.75 µM ([2]; Well no.=8776): 102%

SMILES: OCc1c[nH]c2ccccc12 [Indole-3-carbinol]
- remaining activity at 1.25 µM ([1]; Well no.=3524): 102%
- remaining activity at 3.75 µM ([2]; Well no.=3524): 102%

SMILES: O=C(O)/C=C/C=C/C(=O)O [trans-trans-Muconic acid]
- remaining activity at 1.25 µM ([1]; Well no.=6589): 103%
- remaining activity at 3.75 µM ([2]; Well no.=6589): 106%

SMILES: CC(C)(C)NC[C@H](O)COc1nsnc1N1CCOCC1 [(S)-Timolol maleate]
- remaining activity at 1.25 µM ([1]; Well no.=1739): 98.8%
- remaining activity at 3.75 µM ([2]; Well no.=1739): 97.3%

SMILES: CN1CCN2c3ccccc3Cc3ccccc3C2C1 (stereo not shown) [Mianserin hydrochloride]
- remaining activity at 1.25 µM ([1]; Well no.=874): 107%
- remaining activity at 3.75 µM ([2]; Well no.=874): 106%

SMILES: COC(=O)C1=CO[C@@H](O)[C@@H]2C(CO)=CC[C@H]12 [Genipin]
- remaining activity at 1.25 µM ([1]; Well no.=5276): 95.9%
- remaining activity at 3.75 µM ([2]; Well no.=5276): 89.2%

SMILES: CC(=O)Oc1cc(C(F)(F)F)ccc1C(=O)O [Triflusal]
- remaining activity at 1.25 µM ([1]; Well no.=4942): 98.7%
- remaining activity at 3.75 µM ([2]; Well no.=4942): 96.4%

SMILES: CCCCCC(=O)/C=C/[C@H]1[C@H](O)CC(=O)[C@@H]1C/C=C\CCCC(=O)O [15-keto-prostaglandin E2]
- remaining activity at 1.25 µM ([1]; Well no.=4485): 89%
- remaining activity at 3.75 µM ([2]; Well no.=4485): 96.6%

SMILES: N=C(N)N/N=C/c1c(Cl)cccc1Cl [Guanabenz (Acetate)]
- remaining activity at 1.25 µM ([1]; Well no.=6652): 94.5%
- remaining activity at 3.75 µM ([2]; Well no.=6652): 100%

SMILES: Cc1cc(Nc2nc(N[C@@H](C)c3ccc(F)cc3)c(C#N)cc2F)n[nH]1 [AZ-960]
- remaining activity at 1.25 µM ([1]; Well no.=2980): 93.6%
- remaining activity at 3.75 µM ([2]; Well no.=2980): 92.7%

SMILES: C[C@]1(Cn2ccnn2)[C@H](C(=O)O)N2C(=O)C[C@H]2S1(=O)=O [Tazobactam]
- remaining activity at 1.25 µM ([1]; Well no.=7934): 97.1%
- remaining activity at 3.75 µM ([2]; Well no.=7934): 103%

SMILES: CCCCOc1nc(N)c2c(n1)N(Cc1cccc(CN3CCCC3)c1)CC(=O)N2 [Vesatolimod]
- remaining activity at 1.25 µM ([1]; Well no.=8127): 105%
- remaining activity at 3.75 µM ([2]; Well no.=8127): 102%

SMILES: COc1cc(CCc2cc(NC(=O)c3ccc(N4C[C@@H](C)N[C@@H](C)C4)cc3)n[nH]2)cc(OC)c1 [AZD4547]
- remaining activity at 1.25 µM ([1]; Well no.=5125): 101%
- remaining activity at 3.75 µM ([2]; Well no.=5125): 93.9%

SMILES: O[C@H]1[C@H](O)[C@@H](O)CN2CC[C@H](O)[C@H]12 [Castanospermine]
- remaining activity at 1.25 µM ([1]; Well no.=3135): 102%
- remaining activity at 3.75 µM ([2]; Well no.=3135): 102%
